In ChEMBL document CHEMBL1201862, “PubChem BioAssay data set” (2004) one finds IC50 data, which are given here for two compounds.

The structures appear in SMILES notation. Calls of active or inactive are those of the source. No stated cut-off is given here; in the data, actives have a measured IC50 and inactives only a lower limit.

In this assay the target is Envelope glycoprotein gp160 (Human immunodeficiency virus 1, UniProt Q6QLK5). The assay is described as follows: cell-free HIV fusion peptide-binding blockers – biochemical, uHTS, fluorescence dequenching, […] (AID 1986).
Envelope glycoprotein gp160, sequence (Q6QLK5 whole entry, the tested form may be a part): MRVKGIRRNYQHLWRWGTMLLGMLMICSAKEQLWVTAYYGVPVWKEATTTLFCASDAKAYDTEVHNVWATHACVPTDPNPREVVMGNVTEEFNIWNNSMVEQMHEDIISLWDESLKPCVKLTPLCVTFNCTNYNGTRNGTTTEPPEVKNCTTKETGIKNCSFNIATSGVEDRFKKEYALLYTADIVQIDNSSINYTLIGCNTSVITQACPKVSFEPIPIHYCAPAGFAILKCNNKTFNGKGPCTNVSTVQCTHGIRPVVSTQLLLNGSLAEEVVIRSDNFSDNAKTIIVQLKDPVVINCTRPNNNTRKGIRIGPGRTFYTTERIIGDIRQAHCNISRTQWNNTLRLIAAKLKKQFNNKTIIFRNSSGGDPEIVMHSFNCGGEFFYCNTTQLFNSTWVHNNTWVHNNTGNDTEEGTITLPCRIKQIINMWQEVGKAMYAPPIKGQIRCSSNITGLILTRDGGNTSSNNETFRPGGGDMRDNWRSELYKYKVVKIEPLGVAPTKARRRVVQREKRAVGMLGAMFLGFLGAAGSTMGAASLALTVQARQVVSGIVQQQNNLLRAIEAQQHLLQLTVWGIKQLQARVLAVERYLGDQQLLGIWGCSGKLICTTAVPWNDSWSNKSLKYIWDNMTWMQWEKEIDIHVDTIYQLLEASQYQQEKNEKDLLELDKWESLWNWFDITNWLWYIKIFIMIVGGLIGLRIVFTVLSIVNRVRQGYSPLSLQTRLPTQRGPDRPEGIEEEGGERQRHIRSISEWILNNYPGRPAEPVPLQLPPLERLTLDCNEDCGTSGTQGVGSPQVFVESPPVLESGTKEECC

Usually IC50 stands for the concentration needed to halve the response being measured. In the case of `C=CCOc1ccc(C(c2c(C(=O)O)[nH]c3ccccc23)c2c(C(=O)O)[nH]c3ccccc23)cc1`, the 50% inhibitory concentration (IC50) is 5.01 µM (active).
The figure for `CC(/C=C1\SC(=S)N(c2ccc(C(=O)O)cc2)C1=O)=C\c1ccccc1` is 16.2 µM (active).
